Results taken from paper PMC12167813, “Characterization of a two-component kinase that initiates the bacterial catabolism of hydroxyphenylethanones” (The Journal of Biological Chemistry, 2025).

Tests used:
[1] = target: HpeH (Rhodococcus rhodochrous GD02); assay: SEC-MALS; Superdex 200; 50 µl of HpeH (12.5 µM), HpeI (25 µM) or both, incubated at room temperature for at least 20 min; 10 mM Hepes pH 7.5, 0.50 mM TCEP, 2.0 mM MgCl2, 0.25 mM MnCl2, with 20 mM or 200 mM NaCl; also with AMP-PNP
[2] = target: HpeH (Rhodococcus rhodochrous GD02); assay: mass photometry; Refeyn TwoMP; samples at 20 nM in the standard assay buffer (low ionic strength); acquisition 60 s
HpeHI [3] = system: T1, HpeHI; assay: continuous spectrophotometric assay; type: biochemical, Rhodococcus rhodochrous; settings: apparent; 500 μM ATP, 2.0 mM MgCl2, 25 μM MnCl2, HEPES pH 7.5, I = 20 mM, 30 °C; 0.05 μM HpeH, 0.10 μM HpeI
T1 construct: gene hpeH; two components made separately in E. coli, N-terminal His tags cut with TEV; phenolic site in HpeH
Excerpt: continuous spectrophotometric assay on HpeHI

HpeHI [4] = system: T1, HpeHI; assay: continuous spectrophotometric assay, low-concentration rates verified by LC-MS; type: biochemical, Rhodococcus rhodochrous; settings: apparent; 500 μM ATP, 2.0 mM MgCl2, 25 μM MnCl2, HEPES pH 7.5, I = 20 mM, 30 °C; 0.05 μM HpeH, 0.10 μM HpeI; upper bound
Excerpt: continuous spectrophotometric assay, low-concentration rates verified by LC-MS on HpeHI

Row | Compound | Km (HpeHI [3]) [µM] | Km (HpeHI [4]) [µM] | also measured
1 | HpeH (enzyme) | – | – | stoichiometry N [1]: 2; stoichiometry N [2]: 2
2 | COc1cc(C=O)ccc1O [vanillin] | 10.3 | – | –
3 | COc1cc(C(C)=O)ccc1O [acetovanillone] | – | < 0.3 | –
4 | O=Cc1ccc(O)cc1 [4-hydroxybenzaldehyde] | 9.6 | – | –
5 | CC(=O)c1ccc(O)cc1 [4-hydroxyacetophenone] | – | < 0.3 | –
